Measured values taken from ChEMBL document CHEMBL3046638, “Synthesis and anticonvulsant activity of novel imidazol5(4H)one and 5-oxo-4,5-dihydroimidazol-1-yl)propanamide derivatives” (Med Chem Res, 2012).

Experiments:
Mus musculus [1] = assay: Anticonvulsant activity in Mus musculus albino (mouse) assessed as protection against maximal electroshock-induced seizures at 100 mg/kg, po after 1 hr relative to phenytoin; format: functional
Mus musculus [2] = assay: Neurotoxicity in Mus musculus albino (mouse) assessed as stability time on rotorod at 100 mg/kg, po after 30 min; format: toxicity, organism-based; parameters: dose 100 mg/kg, route oral; conditions: in vivo, 0.5 h
Mus musculus [3] = assay: Anticonvulsant activity in Mus musculus albino (mouse) assessed as protection against maximal electroshock-induced seizures at 100 mg/kg, po after 1 hr; format: functional

SMILES | Activity (Mus musculus [1]) [%] | Time (Mus musculus [2]) [s] | Activity (Mus musculus [3]) [%]
O=C(CNN1C(=O)/C(=C/c2ccc(F)cc2F)N=C1c1ccc(F)cc1)c1ccc(-c2ccccc2)cc1 | 96.42 |  | 
Cc1ccc(C(=O)CNN2C(=O)/C(=C/c3ccc(F)cc3F)N=C2c2ccc(F)cc2)cc1 | 92.84 | 174 | 
COc1ccc(C(=O)CNN2C(=O)/C(=C/c3ccc(F)cc3F)N=C2c2ccc(F)cc2)cc1 | 71.42 |  | 
O=C(CNN1C(=O)/C(=C/c2ccc(F)cc2F)N=C1c1ccc(F)cc1)c1ccc(O)cc1 | 57.15 |  | 
O=C(CNN1C(=O)/C(=C/c2ccc(F)cc2F)N=C1c1ccc(F)cc1)c1ccc([N+](=O)[O-])cc1 | 64.28 |  | 
O=C(CNN1C(=O)/C(=C/c2ccc(F)cc2F)N=C1c1ccc(F)cc1)c1ccccc1 | 37.5 |  | 49.96
CC(C(=O)Nc1ccc(C#N)cc1)N1C(=O)/C(=C/c2ccc(F)cc2F)N=C1c1ccc(F)cc1 (centres undefined) | 96.42 | 285 | 
COc1ccc(NC(=O)C(C)N2C(=O)/C(=C/c3ccc(F)cc3F)N=C2c2ccc(F)cc2)cc1 (centres undefined) | 96.42 | 219 | 
CC(C(=O)Nc1ccccc1)N1C(=O)/C(=C/c2ccc(F)cc2F)N=C1c1ccc(F)cc1 (centres undefined) | 24.77 |  | -0.94
